In PMC8307831, “Preparation of Monoclonal Antibody and Development of Indirect Competitive Enzyme-Linked Immunosorbent Assay and Fluorescence-Linked Immunosorbent Assay for Detecting 3-Amino-5-methylmorpholino-2-oxazolidinone (AMOZ) in Edible Animal Tissue” (Molecules, 2021) one finds Cross-Reactivity and IC50 data, which are given here for 13 compounds.

Structures are written as SMILES. In brackets after ≈: the same amount, converted by molar mass. Bounds are passed on as bounds.

The term IC50 denotes the midpoint of a concentration-inhibition curve.

The test system of assay [1] is mAb 5C10/3A8. Kind of assay: indirect competitive ELISA (ic-ELISA) with CPAMOZ-OVA coating antigen. The format is binding, mouse. As to conditions: for Cross-Reactivity: (IC50 of 2-NP-AMOZ / IC50 of compound tested) x 100%, 2-NP-AMOZ set to 100%; for IC50: mAb 5C10/3A8, competition with coating antigen CPAMOZ-OVA. On the procedure:
To carry out 2-NP-AMOZ ic-ELISA, 96-well plates were first coated with 100 μL of CPAMOZ-OVA in 50 mM of carbonate buffer solution (pH = 9.6) overnight at 4 °C. […] The plates were washed again three times, after which 50 μL of different concentrations of 2-NP-AMOZ analytes and 50 μL of the obtained mAb were added into each well, incubated at 37 °C for 1 h, and the plates were washed three times with the PBST. Subsequently, 100 μL of horseradish peroxidase-labeled goat anti-mouse IgG (1:10,000 dilution) was added to the wells and incubated at 37 °C for 1 h. This was followed by a washing step of three washes with PBST solution, after which 100 μL of substrate solution was added to each well and incubated for 15 min in darkness. The reaction was stopped by adding 50 μL/well of 2 M of H2SO4. The absorbance at 450 nm was measured on a Tecan Sunrise 2.5 microplate reader (SUNRISE, Austria). A calibration curve was constructed by plotting (B/B0) × 100% vs. log C, where B and B0 represent the absorbance of the analyte at the known concentrates (standards) and at zero concentration of the analyte, respectively.
The extent of cross-reactivity was evaluated by determining IC50 values using an ic-ELISA as described above. […] The concentration of the standard solutions of the compounds was set from 0.01 to 1000 ng/mL.

Assay [2] relates to mAb 5C10/3A8. The assay is described as follows: QD-based fluorescence-linked immunosorbent assay (FLISA). It is filed as binding. Conditions: 655 nm QDs-conjugated goat anti-mouse IgG. On the procedure: The procedures for FLISA and ic-ELISA were identical before the secondary antibody was added. More specifically, after washing with PBST for three times, 100 μL of 655 nm QDs-conjugated goat anti-mouse IgG (1:10,000 dilution) was added to each well and incubated at 37 °C for 45 min. After three washes with PBST, a SpectraMax M2e Microplate Reader (Molecular Devices, San Jose, CA, USA) was used to measure the fluorescence signals from samples with excitation/emission at 360/655 nm. The fluorescence intensities were identified as B0 and B for the control and testing sample. The standard curve was established by plotting the form (B/B0) 100% against the 2-NP-AMOZ concentration.

A further assay relates to monoclonal antibodies. Set-up: method as in not given. Conditions: published mAb-based homologous ic-ELISAs and fluoroimmunoassay; range over the literature; ref not given; cited from earlier work.

In the case of `O=Cc1ccccc1[N+](=O)[O-]` [2-NBA, 2-nitrobenzaldehyde], in the assay on mAb 5C10/3A8 [1], the Cross-Reactivity was <0.01% and the IC50 is >1 µg/mL.
On the same counts, the results for `O=C1CN(/N=C/c2ccccc2[N+](=O)[O-])C(=O)N1` [2-NP-AHD] are <0.01% and >1 µg/mL.
`O=C1OC(CN2CCOCC2)CN1/N=C/c1ccccc1[N+](=O)[O-]` (centres unmarked) [2-NP-AMOZ]: the Cross-Reactivity in the assay on mAb 5C10/3A8 [1] is 100%. Moreover, the half-inhibitory concentration (IC50) in the assay with mAb 5C10/3A8 [1] is 0.00011 µg/mL (≈ 0.000329 µM); in the assay on mAb 5C10/3A8 [2], 0.09 ng/mL (≈ 0.000269 µM); in the assay on monoclonal antibodies it was 0.00014 to 0.0043 µg/mL.
Turning to `O=C1OCCN1/N=C/c1ccccc1[N+](=O)[O-]` [2-NP-AOZ], in the assay with mAb 5C10/3A8 [1], the Cross-Reactivity is <0.01% and the 50% inhibitory concentration (IC50) is >1 µg/mL.
The corresponding values for `O=Cc1ccc(C(=O)O)cc1` [4-CBA, 4-carboxybenzaldehyle] are <0.01% and >1 µg/mL.
With `NN1CC(=O)NC1=O` [AHD, 1-aminohydantoin], in the assay with mAb 5C10/3A8 [1], the Cross-Reactivity is <0.01% and the concentration for half-maximal inhibition (IC50) was >1 µg/mL.
For the compound `NN1CC(CN2CCOCC2)OC1=O` (centres unmarked) [AMOZ, 3-amino-5-morpholinomethyl-2-oxazolidinone], the Cross-Reactivity with mAb 5C10/3A8 [1] is given as 10.7%. Further, the IC50 with mAb 5C10/3A8 [1] is 0.00103 µg/mL (≈ 0.00512 µM); in the assay on monoclonal antibodies, 0.00115 to 0.00533 µg/mL.
In the case of `NN1CCOC1=O` [AOZ, 3-amino-2-oxazolidinone], in the assay with mAb 5C10/3A8 [1], the Cross-Reactivity was <0.01% and the IC50 was >1 µg/mL.
On the same counts, the results for `O=C(O)c1ccc(/C=N/N2CC(CN3CCOCC3)OC2=O)cc1` (centres unmarked) [CPAMOZ, carboxyphenyl AMOZ] are 122.2% and 9e-05 µg/mL (≈ 0.00027 µM).
Consider `O=C1OC(CN2CCOCC2)CN1/N=C/c1ccc([N+](=O)[O-])o1` (centres unmarked) [Furaltadone, furaltadone], for which, in the assay on mAb 5C10/3A8 [1], the Cross-Reactivity is 8.9% and the 50% inhibitory concentration (IC50) was 0.00124 µg/mL (≈ 0.00382 µM).
On the same counts, the results for `O=C1CN(/N=C/c2ccc([N+](=O)[O-])o2)C(=O)N1` [Nitrofurantoin, nitrofurantoin] are <0.01% and >1 µg/mL.
Turning to `NC(=O)N/N=C/c1ccc([N+](=O)[O-])o1` [Nitrofurazone, nitrofurazone], in the assay on mAb 5C10/3A8 [1], the Cross-Reactivity is listed as <0.01% and the half-maximal inhibitory concentration (IC50) was >1 µg/mL.
On the same counts, the results for `NNC(N)=O` [SEM, semicarbazide] are <0.01% and >1 µg/mL.
